The source of these data is US20140005234A1, “INSECTICIDAL N-SUBSTITUTED SULFILIMINE AND SULFOXIMINE PYRIDINE N-OXIDES” (Dow AgroSciences LLC, priority 2012, published 2014).

For the first assay, the system named is Green Peach Aphid (GPA). As to the kind of experiment: Insecticidal testing for Green Peach Aphid (GPA), foliar spray on infested cabbage seedlings. More on the design: key to GPA Control @ 200 ppm: A: 80-100; B: More than 0-Less than 80; C: Not Tested; D: No activity noticed in this bioassay. The format is in vivo. As to conditions: 200 ppm test compound sprayed on cabbage seedlings infested with GPA; graded after three days; Abbott-corrected % control, qualitative rating. An excerpt:
Insecticidal Testing for Green Peach Aphid (GPA) GPA is the most significant aphid pest of peach trees, causing decreased growth, shriveling of the leaves, and the death of various tissues. It is also hazardous because it acts as a vector for the transport of plant viruses, such as potato virus Y and potato leafroll virus to members of the nightshade/potato family Solanaceae, and various mosaic viruses to many other food crops. GPA attacks such plants as broccoli, burdock, cabbage, carrot, cauliflower, daikon, eggplant, green beans, lettuce, macadamia, papaya, peppers, sweet potatoes, tomatoes, watercress, and zucchini, among other plants. GPA also attacks many ornamental crops such as carnation, chrysanthemum, flowering white cabbage, poinsettia, and roses. GPA has developed resistance to many pesticides. Certain compounds disclosed in this document were tested against GPA using procedures described as follows. Cabbage seedlings grown in 3-inch pots, with 2-3 small (3-5 cm) true leaves, were used as test substrate. The seedlings were infested with 20-50 GPA (wingless adult and nymph stages) one day prior to chemical application. Four pots with individual seedlings were used for each treatment. Test compounds (2 mg) were dissolved in 2 mL of acetone/methanol (1:1) solvent, forming stock solutions of 1000 ppm test compound. The stock solutions were diluted 5× with 0.025% Tween® 20 (Sigma-Aldrich, Inc., St. Louis, Mo.) in H2O to obtain the solution at 200 ppm test compound. A hand-held aspirator-type sprayer was used for spraying a solution to both sides of […] leaves until runoff. Reference plants (solvent check) were sprayed with the diluent only containing 20% by volume of acetone/methanol (1:1) solvent. Treated plants were held in a holding room for three days at approximately 25° C. and ambient relative humidity (RH) prior to grading. Evaluation was conducted by counting the number of live aphids per plant under a microscope. Percent Control was measured by using Abbott's correction formula (W. S. Abbott, “A Method of Computing the Effectiveness of an Insecticide” J. Econ. Entomol. 18 (1925), pp. 265-267) as follows: Corrected % Control=100*(X−Y)/X • where • X=No. of live aphids on solvent check plants and • Y=No. of live aphids on treated plants The results provided in Table 6 below are based on the qualitative ratings set forth in Table 5.
On to `CS(=O)(Cc1ccc(Cl)[n+]([O-])c1)=N[N+](=O)[O-]` (stereo not shown) [(20)], for which the “GPA Control @ 200 ppm” value is given as “D”.

`CC(c1ccc(Cl)[n+]([O-])c1)S(C)(=O)=NC(N)=O` (stereo not shown) [(23)]: the “GPA Control @ 200 ppm” value is listed as “D”.

For `CS(=O)(Cc1ccc(C(F)(F)F)[n+]([O-])c1)=NC(N)=O` (stereo not shown) [(22)], the “GPA Control @ 200 ppm” value is on record as “D”.

Still in this assay, the particulars now being: Myzus persicae, foliar, 72 h; 200 ppm test compound sprayed on cabbage seedlings infested with GPA; graded after three days; Abbott-corrected % control, qualitative rating.
One may read the pest or weed control as the degree to which the test organism was suppressed or injured, in per cent. Take `CC(c1ccc(C(F)(F)F)[n+]([O-])c1)S(C)(=O)=N[N+](=O)[O-]` (stereo not shown) [(21)]: the pest or weed control at 200 ppm was in the range of 80 to 100%.

Take `CC(C)(c1ccc(C(F)(F)F)[n+]([O-])c1)S(C)(=O)=NC#N` (stereo not shown) [(10)]: the pest or weed control at 200 ppm lay within 80 to 100%.

With `CC(c1ccc(C(F)(F)F)[n+]([O-])c1)/S(C)=N\C#N` (stereo not shown) [(5)], the pest or weed control at 200 ppm is 80 to 100%.

`CS(=O)(Cc1ccc(C(F)(F)F)[n+]([O-])c1)=NC#N` (stereo not shown) [(9), [methyl(oxido){[1-oxido-6-(trifluoromethyl)pyridin-3-yl]methyl}-λ^6-sulfanylidene]cyanamide]: the pest or weed control at 200 ppm is 80 to 100%.

In turn, `CC(c1ccc(C(F)(F)F)[n+]([O-])c1)S(C)(=O)=NC#N` (stereo not drawn) [Compound (6), N-Cyano-S-[1-(6-trifluoromethyl-3-pyridinyl)ethyl]-S-methylsulfoximine N-oxide] gave a pest or weed control at 200 ppm of 80 to 100%.

`CC(c1ccc(Cl)[n+]([O-])c1)S(C)(=O)=NC#N` (stereo not shown) [(19)] had a pest or weed control at 200 ppm of 80 to 100%.

The compound `CC(c1ccc(Cl)[n+]([O-])c1)S(C)(=O)=N[N+](=O)[O-]` (stereo not shown) [(18)] had a pest or weed control at 200 ppm of 0 to 80%.
